Seven compounds from PubChem BioAssay AID652144 (Broad Institute, 2013) can be followed below.

A word on the AC50: it is the midpoint of the concentration-response curve, whichever way the signal moves.

What all share (experiment): viability reduction measured by resazurin – cell-based, Alamar Blue fluorescence, multiple timepoints, mechanism study for HRAS target identification project, profiling panel (AID 652144)
Holding throughout (conditions): Cancer/normal cell panel viability, 8-48 h
On the technique in general: Resazurin is reduced to fluorescent resorufin, in cell work by metabolically active cells.

The subject of test [1] is C2C12.
The test system of test [2] is CCRF-CEM.
In test [3] the test system is HT-29.
In test [4] the test system is HeLA.
Test [5] has as its system LOX-IMVI.
The test system of test [6] is SNB-75.
Test [7] concerns SR.
In test [8] the test system is U-251.
In test [9] the test system is SNB-19.
Test [10] relates to HUVEC.

Records with an inconclusive call do not appear. Calls of active or inactive are those of the source. How the calls were made is not given here.

As for `COC(=O)c1ccc([C@@H]2c3[nH]c4ccccc4c3C[C@@H](C(=O)OC)N2C(=O)CCl)cc1`, the AC50 in test [1] is 101 nM; in test [2], 50.2 nM; in test [3] it was 177 nM; in test [4] it was 573 nM; in test [5], 31 nM; in [6], 355 nM. In addition, the AC50 in test [7] was 32.9 nM; in test [8] it was 1060 nM.

Consider `CCC(=O)N(c1ccc(OC)c(Cl)c1)C(C(=O)NCCc1ccccc1)c1cccs1` (centres undefined), for which the AC50 in test [3] and in test [4] was > 70000 nM (inactive) throughout. Moreover, the result in [5], in [9] and in [8] was inactive.

Consider `COc1ccc(N(C(=O)CCl)C(C(=O)NCCc2ccccc2)c2cccs2)cc1Cl` (centres undefined), for which the concentration at half-maximal activity (AC50) in [1] was 842 nM; in [2] it was 78.5 nM; in [3], 162 nM; in [10], 8940 nM; in test [4] it was 547 nM; in test [5], 40.5 nM. The half-maximal activity concentration (AC50) in test [9] is 1170 nM; in test [6], 286 nM; in test [7] it was 61.8 nM; in [8] it was 896 nM.

For the compound `C#CCCCC(=O)NCCOCCOCCOc1ccc(N(C(=O)CCl)C(C(=O)NCCc2ccccc2)c2cccs2)cc1Cl` (centres undefined), the AC50 in [1] was 5420 nM; in test [2], 997 nM; in [3] it was 2860 nM; in test [4], 4490 nM; in test [5], 421 nM; in test [9] it was 4450 nM. The concentration at half-maximal activity (AC50) in test [6] is 3560 nM; in test [7] it was 885 nM; in test [8], 6810 nM.

In the case of `CC(C)(C)OC(=O)NCCOCCOCCOc1ccc(N(C(=O)CCl)C(C(=O)NCCc2ccccc2)c2cccs2)cc1Cl` (centres undefined), the AC50 was 442 nM in test [1]; 86.5 nM in [2]; 457 nM in test [3]; 13700 nM in test [10]; 650 nM in test [4]; 83.4 nM in [5]. Also, the AC50 was 1720 nM in test [9], 686 nM in test [6], 95.1 nM in test [7] and 1350 nM in [8].

Turning to `Cc1onc(C(=O)N2CCN(C(c3ccncc3)c3ccncc3)CC2)c1[N+](=O)[O-]`, the outcome in test [1], in test [2], in test [3], in test [10], in [4] and in test [5] was inactive. In addition, the result in test [9], in test [6], in [7] and in [8] was inactive.

Regarding `Cc1onc(C(=O)N2CCN(C(c3ccc(Cl)cc3)c3ccc(Cl)cc3)CC2)c1[N+](=O)[O-]`, the AC50 is 144 nM in test [2]; 963 nM in test [3]; 103 nM in test [5]; 687 nM in [6]; 142 nM in test [7]; > 70000 nM (inactive) in test [8]. Also, the result in test [10] was inactive.
